Earlier results in patent publication US10213443B2, “Tetracycline topical formulations, preparation and uses thereof in treating an ocular condition” (Hovione International Ltd., priority 2012, dated 2019).

Columns and labels:
[1] = in man
[2] = compared with doxycycline

CN(C)c1ccc(O)c2c1C[C@H]1C[C@H]3[C@H](N(C)C)C(O)=C(C(N)=O)C(=O)[C@@]3(O)C(O)=C1C2=O [Minocycline, minocycline]
oral bioavailability [1]: ~100%
phototoxicity [2]: not phototoxic
